Data set [1] is described as follows: Brain tissue distribution test in mice. The following applies: IV 10 mg/kg; for AUC(0-inf) / AUC(0-t) / MRT / half-life: mouse; for half-life: read-out: T½ (converted). It is filed as in vivo. As for the experimental part: Mice were weighed and dosed, and about 50 μL of whole blood was collected from the orbital venous plexus at 5 min, 0.25 h, 0.5 h, 1 h, 2 h, 4 h, 6 h, 8 h, and 24 h after administration, using EDTA-K2 as anticoagulant. At the same time, the animals were euthanized, and the brains were removed, and the brain tissue samples were stored in a −80° C. refrigerator until analysis. The blood samples were centrifuged at 4000 rpm for 10 min at 4° C., and 20 μL of the supernatant plasma sample was taken into an EP tube and immediately stored in a −80° C. refrigerator until analysis. 10 μL of the plasma sample was transferred to a 96-well plate and 250 μL of acetonitrile (containing internal standard) was added to precipitate proteins. The samples were centrifuged at 4000 rpm/min for 20 min in a 4° C. centrifuge. The supernatant was transferred and injected into LC MS/MS to detect the drug concentration. The brain tissue samples were weighed and homogenized with 4 times ice-cold PBS, and 50 μL of the brain tissue homogenate was transferred to a 96-well plate. 500 μL of acetonitrile (containing internal standard) was added to precipitate the protein. The samples were centrifuged at 4000 rpm/min for 20 min in a 4° C. centrifuge. 380 μL of the supernatant was transferred to a new 96-well plate and 380 μL of 0.1% formic acid in water was added and mixed thoroughly. 10 μL of the sample was taken and injected into LC MS/MS to detect the drug concentration. The data were processed by Thermo LC Quan software, and the standard curve was established using the internal standard method, with the theoretical standard curve concentration as the abscissa and the peak area ratio as the ordinate (test compound peak area/internal standard peak area). Sample concentrations were calculated using the standard curve. The pharmacokinetic parameters were calculated using WinNonlin 8.2 software.

A further data set deals with mino cells. The experiment in a line: Activity test in Mino cells (CCK8 proliferation inhibition). The conditions noted are these: Homo sapiens, 72 h, 3 days, read-out: Cell inhibition IC50. It is filed as cell-based. As for the experimental part:
Cell culture: mino cells (culture conditions: RPMI1640 medium+15% FBS, 37° C., 5% CO2). Cell plating: The cells subcultured into the logarithmic growth phase were collected and transferred into a centrifuge tube, and centrifuged at 800 rpm for 5 min. The cells were resuspended in complete medium and counted. The cells were diluted and adjusted to a final concentration of 200000 cells/mL. The cells were then seeded into a 96-well plate with 100 μL per well. Cell administration: Each group of drug solutions was added into the 96-well plate, 100 μL per well, n=3 for each drug concentration. Meanwhile, negative wells (n=6) and blank wells (n=3) were set up. The 96-well plate was incubated in the incubator for further 3 days. CCK8 reagent was added to the 96-well plate, 20 μL per well, and then the plate was placed in the incubator for further 4 h. The absorbance of the solution was measured at a wavelength of 450 nm using an enzyme reader. The proliferation inhibition rate was calculated and the half inhibitory concentration IC50 value was calculated.

For a further data set, the system named is Mino cell xenograft. Kind of data set: Activity test in Mino cell xenograft model. It is filed as in vivo, NOD SCID mice. The conditions noted are these: for Tumor volume: end of experiment, Mean ± SD.
A further data set can be described thus: PK test in mice. It is filed as in vivo. As for the experimental part:
Mice were weighed and dosed, and about 50 μL of whole blood was collected from the orbital venous plexus at 5 min, 0.25 h, 0.5 h, 1 h, 2 h, 4 h, 6 h, 8 h, and 24 h after administration, using EDTA-K2 as anticoagulant. The blood samples were centrifuged at 4000 rpm for 10 min at 4° C., and 20 μL of the supernatant plasma sample was taken into an EP tube and immediately stored in a −80° C. refrigerator until analysis. 10 μL of the plasma sample was transferred to a 96-well plate and 250 μL of acetonitrile (containing internal standard) was added to precipitate proteins. The samples were centrifuged at 4000 rpm/min for 20 min in a 4° C. centrifuge. The supernatant was transferred and injected into LC MS/MS to detect the drug concentration. The data were processed by Thermo LC Quan software, and the standard curve was established using the internal standard method, with the theoretical standard curve concentration as the abscissa and the peak area ratio as the ordinate (test compound peak area/internal standard peak area). Sample concentrations were calculated using the standard curve. The pharmacokinetic parameters were calculated using WinNonlin 8.2 software.

Data set [2] deals with REC-1 (BTK C481S) cell xenograft. Kind of data set: Activity test in REC-1 (BTK C481S) cell xenograft model. The following applies: REC-1 (BTK C481S) xenograft; for Tumor weight: Mean ± SEM. It counts as in vivo, BALB/c-Nude mice. As for the experimental part:
REC-1 (BTK C481S) cell culture (culture conditions: RPMI1640 medium+10% FBS, 37° C., 5% CO2). The cells subcultured into the logarithmic growth phase were collected and transferred into a centrifuge tube, and centrifuged at 1300 rpm for 3 min. On the day of inoculation, the cell density was adjusted to 5*10^7 cells/mL.
Cell inoculation: The inoculation site was selected at the right shoulder blade of the experimental animal, and the inoculation density was 5*10^6 cells+matrix gel/200 μL/animal.
Experimental animals: BALB/c-Nude, female, 6-8 W.
Grouped administration: When the average tumor volume reached 80-120 mm^3, the animals were randomly grouped according to tumor volume, with the coefficient of variation (CV) of tumor volumes not exceeding ⅓ of the mean volume. The day of grouping was defined as D0, and the administration began on the day of grouping. The body weight of the mice was measured before administration, and the administration was based on the body weight on that day.
Experimental observation and data collection: After cell inoculation, the effect of the tumor on the normal behavior of the animals was routinely monitored every week. Specific contents include the activity, food and water intake, weight gain or loss, eyes, fur and other abnormalities of the experimental animals. After the start of administration, the mice were weighed and dosed daily, and tumor volume was measured twice a week. The tumor volume was calculated as follows: tumor volume (mm^3)=0.52×tumor long diameter (mm)×tumor short diameter (mm)^2. At the end of the experiment, the following indicators were analyzed: tumor growth curve, mouse body weight curve, tumor weight, uniform photography of the excised tumors arranged according to groups, and calculation of tumor volume inhibition rate (TGI).
TGITV (Relative tumor volume inhibition rate) calculation formula:
[formula] • Vnt: Tumor volume of the mouse numbered n on day t; • Vn0: Tumor volume of the mouse numbered n on day 0; • RTVn: Relative tumor volume of the mouse numbered n on day t; • mean RTVtreat: RTV mean of the administration group; • mean RTVvehicle: RTV mean of the Vehicle group; • The experimental results such as tumor volume and mouse body weight of each group of animals are expressed as mean±standard error of the mean (Mean±SEM). T test was used for comparison between the two groups. One-way ANOVA was used for comparisons among three or more groups.

Some results are limits rather than exact numbers.

One may read the AUC(0-inf) as the area under the concentration-time curve extrapolated to infinity. Low values mean less exposure, high ones more exposure. The term AUC(0-t) denotes exposure summed from dosing to a finite time, without extrapolation to infinity. As a reminder, the MRT is the average time that molecules of a dose stay in the body. Broadly, the IC50 is the concentration at which inhibition is half-maximal. For `COc1ccc(F)cc1C(=O)NCc1ccc(-c2nc(-c3ccc(N4CCN(CC5CCN(c6ccc(C7CCC(=O)NC7=O)cc6)CC5)CC4)cc3)n3ccnc(N)c23)cc1` (centres unmarked) [Compound I-18], the “B/P Ratio AUC (brain)/AUC (plasma)” value in data set [1] is reported as 6.86% ± 0.01. Moreover, in data set [1] (brain), the AUC(0-inf) worked out at 2710 ± 149 ng·h/mL, the AUC(0-t) was 2270 ± 126 ng·h/mL, the MRT came out at 7.17 ± 0.59 h and the half-life is 563 ± 182 min. Besides, in data set [1] (plasma), the AUC(0-inf) amounted to 39800 ± 4460 ng·h/mL, the AUC(0-t) amounted to 39100 ± 5080 ng·h/mL, the MRT was 4.88 ± 0.14 h and the half-life is 266 ± 82.8 min. Also, in the data set with mino cells, the IC50 was less than 25 nM.
Consider `C=CC(=O)N1CCC[C@@H](n2nc(-c3ccc(Oc4ccccc4)cc3)c3c(N)ncnc32)C1` [Ibrutinib, ibrutinib, reference compound], for which, in the data set on Mino cell xenograft (50 mg/kg), the “TGITV (Relative tumor volume inhibition rate)” value is reported as 40.73% and the Tumor volume is on record as 3018.11 ± 1293.65 mm^3.
Regarding `COc1ccc(F)cc1C(=O)NCc1ccc(-c2nc(-c3ccc(N4CCN(CC5CCN(c6ccc(N7CCC(=O)NC7=O)c(C)c6)CC5)CC4)cc3)n3ccnc(N)c23)cc1` [Compound I-40], in the data set on Mino cell xenograft (30 mg/kg), the “TGITV (Relative tumor volume inhibition rate)” value is given as 76.65% and the Tumor volume came out at 1146.34 ± 435.82 mm^3. For the same molecule, the IC50 in the data set on mino cells was less than 25 nM.
The term Cmax denotes the maximum level reached in the sampled fluid or tissue. For `COc1ccc(F)cc1C(=O)NCc1ccc(-c2nn(-c3ccc(N4CCN(CC5CCN(c6ccc(N7CCC(=O)NC7=O)c(C)c6)CC5)CC4)nc3)c3ncnc(N)c23)cc1` [Compound I-2, N-(4-(4-amino-1-(6-(4-((1-(4-(2,4-dioxotetrahydropyrimidin-1(2H)-yl)-3-methylphenyl)piperidin-4-yl)methyl)piperazin-1-yl)pyridin-3-yl)-1H-pyrazolo[3,4-d]pyrimidin-3-yl)benzyl)-5-fluoro-2-methoxybenzamide], in the data set on Mino cell xenograft (30 mg/kg), the “TGITV (Relative tumor volume inhibition rate)” value came to 80.75% and the Tumor volume stood at 955.81 ± 343.68 mm^3. The molecule further showed a Bioavialibility in “PK test in mice” (PO 20 mg/kg vs IV 5 mg/kg) of 51.8%. In the data set “PK test in mice” (mouse, IV 5 mg/kg, plasma), this molecule showed an AUC(0-inf) of 44500 ± 4610 ng·h/mL, an AUC(0-t) of 42800 ± 5760 ng·h/mL, an MRT of 5.25 ± 0.17 h and a half-life of 321 ± 96.6 min. In “PK test in mice” (mouse, PO 20 mg/kg, plasma), the AUC(0-inf) was 92200 ± 33200 ng·h/mL, the AUC(0-t) stood at 83500 ± 22200 ng·h/mL, the Cmax amounted to 8950 ± 339 ng/mL and the MRT turned out to be 6.46 ± 1.4 h. In “PK test in mice” (mouse, PO 20 mg/kg, plasma), this molecule showed a half-life of 379 ± 209 min. Also, in the data set with mino cells, the IC50 stood at 14 nM. Besides, in data set [2] (15 mg/kg), the “T/C (Tweight/Cweight)” value is 11.93% and the Tumor weight worked out at 0.345 ± 0.082 g. Also, in data set [2] (30 mg/kg), the “T/C (Tweight/Cweight)” value amounted to 12.76% and the Tumor weight was determined as 0.369 ± 0.043 g.

Source of the values: patent US20260248784A1, “BTK Degrader and Use Thereof” (JIANGSU VCARE PHARMATECH CO., LTD., priority 2023, published 2026).
